Here are results for 63 compounds from ChEMBL document CHEMBL1157539, “Thousands of chemical starting points for antimalarial lead identification” (Nature, 2010).

For this test, the system named is Plasmodium falciparum. Description: GSK_TCMDC: Inhibition of Plasmodium falciparum 3D7 in whole erythrocytes, using parasite LDH activity as an index of growth. It is filed as functional, organism-based. The settings on record: Plasmodium falciparum, 3D7.
The compound `CCN(CC)CCN(Cc1ccc(-c2ccc(C(F)(F)F)cc2)cc1)C(=O)Cn1cc(CCCc2cccc(F)c2F)c(=O)c2ccccc21` yielded an XC50 of 1060 nM.
Next, `C#CCN1CCC2=C(C1)c1c(O)cc(C(C)CCCc3ccc(F)cc3)cc1OC2(C)C` (stereo not drawn): 731 nM; `O=C1COC2(CN1CC1CCN(Cc3ccc(O)c(Cl)c3)C1)c1ccccc1-c1ccccc12` (stereo not drawn): 1060 nM; `c1cncc(CCNCc2ccc(-c3ccc(CNC4Cc5ccccc5C4)cc3)cc2)c1`: 1090 nM.
In the case of `Cc1noc(C)c1S(=O)(=O)N(C)Cc1ccc(-c2ccc(Cl)cc2)o1`, the XC50 worked out at 362 nM.
`CCCCc1ccccc1NS(=O)(=O)c1ccc(OC)c(N2CCNCC2)c1` gave an XC50 of 1380 nM.
To `Cc1cc2c(cc1C(F)(F)F)N(C(=O)Nc1ccc(C(=O)NCCN3CCCC3)cc1)CC2` belongs 321 nM; to `COc1cccc(OC)c1OCCCON1C(=N)N=C(N)NC1(C)C`, 7.28 nM; to `CC(=O)Nc1ccccc1OCc1cc2cc(C(=O)N3CCC(N4C(=O)OCc5ccccc54)CC3)ccc2o1`, 236 nM.
`O=C(NC1CC1)c1ccc(N2CCC(Oc3ccc(F)cc3)CC2)nc1`: the XC50 came out at 1090 nM.
Next, `O=C(Nc1cccc(C(F)(F)F)c1)c1cccc(S(=O)(=O)NCC2CCCN(Cc3ccccc3)C2)c1` (stereo not drawn): 1100 nM; `Cc1ccccc1OCC(O)CNC1CCC(NCC(O)COc2ccccc2C)CC1` (stereo not drawn): 1190 nM.
Next, `N#Cc1ccc(N(CCOC(=O)c2ccc(Br)s2)Cc2ccccc2C(F)(F)F)cc1C(F)(F)F`: 1070 nM; `NS(=O)(=O)c1cncc(-c2ccc3nccc(-c4cn[nH]c4)c3n2)c1`: 526 nM.
Next, `CCCc1c(C(=O)NC2CCC(CN3CCC(c4c[nH]c5ccccc45)CC3)CC2)cnn1-c1ccccc1` (stereo not drawn): 1790 nM.
In the case of `COCc1nc(N)nc(N)c1-c1ccc(Cl)c(Cl)c1`, the XC50 stood at 1020 nM.
In the case of `Cc1ccccc1C1CCN(C2CCC(NC(=O)c3cc4cc(Cl)ccc4o3)CC2)CC1` (stereo not drawn), the XC50 amounted to 1200 nM.
Turning to `O=C(CCNc1ccnc(NCC2CCCCC2)n1)Nc1ccccc1`, the XC50 was found to be 1100 nM.
To `CC(=O)Nc1ccc(CN2CCC(NC(=O)c3ccc(-c4cccc(OC(C)C)c4)s3)CC2)cc1` belongs 1460 nM; to `N=C(NCCCCC1CCCCC1)c1cccc(C(=N)NCCCCC2CCCCC2)n1`, 395 nM.
In turn, `O=C(N[C@H]1CCN(Cc2ccc(OCCCN3CCCCC3)cc2)C1)c1ccc(Oc2ccccc2)cc1` came in with an XC50 of 784 nM.
To `Cc1ccc2[nH]c(-c3ccc(C=CC(=O)NCc4ccc(Cl)c(Cl)c4)cc3)nc2c1` belongs 901 nM.
Compound `COc1cc(Cc2cnc(N)nc2N)cc(OCc2cccc(C(=O)O)c2)c1OC` showed an XC50 of 835 nM.
Next, `O=C(Nc1ccc(Cl)c(Cl)c1)Nc1ccc2nccc(N3CCNCC3)c2c1`: 262 nM; `CCCCCN1CCCC(NS(=O)(=O)c2ccc(C(=O)Nc3cccc(C(F)(F)F)c3)cc2)C1` (stereo not drawn): 795 nM; `Cc1[nH]cnc1CSCCNC(=N)NCCCCCCCCNC(=N)NCCSCc1nc[nH]c1C`: 268 nM.
To `O=C(Nc1ccncc1)c1cc(C(=O)Nc2ccncc2)cc([N+](=O)[O-])c1` belongs 614 nM.
To `O=C(Nc1cccc(-c2ccc(CN3CCCC3)cc2)c1)c1cccc(Cl)c1` belongs 430 nM; to `N#Cc1ccc(C(=O)Nc2cccc(-c3ccc(CN4CCCC4)cc3)c2)cc1`, 723 nM; to `CN(C)c1c(CNCCCCCCNCc2ccc3ccccc3c2N(C)C)ccc2ccccc12`, 463 nM.
For the compound `COc1ccccc1N1CCN(Cc2c(NC(C)=O)sc(C)c2C)CC1`, the XC50 came out at 425 nM.
Next, `O=C(Cc1ccccc1)NC(CCN1CCC(N(C2CC2)S(=O)(=O)c2cccc(C(F)(F)F)c2)CC1)c1ccc(Cl)c(Cl)c1` (stereo not drawn): 1270 nM.
Take `Cc1cc2nc(-c3ccc(/C=C/C(=O)NC4CCN(Cc5ccccc5)CC4)cc3)[nH]c2cc1C`: the XC50 worked out at 588 nM.
`COc1ccccc1N(C)CCNc1cc(C)nc(Nc2ccc(C)cc2)n1` came in with an XC50 of 1570 nM.
`COc1ccccc1CNC(=O)c1cc(Br)cc(N2CCN(c3ccncc3)CC2)c1` displayed an XC50 of 946 nM.
Next, `COc1ccc(NC(=O)c2ccc(-c3ccc(-c4cccnc4)cc3)c(C)c2)cc1OCCN(C)C`: 201 nM.
Next, `CCCCCC(C)C(C)c1cc(O)c2c3c(c(=O)oc2c1)CN(Cc1ccccc1)CC3` (stereo not drawn): 605 nM.
To `Fc1ccc2[nH]c(-c3cccc(-c4cccc(CNCc5cnn(-c6ccccc6)n5)c4)c3)nc2c1` belongs 971 nM; to `COc1ccc2nc3cc(Cl)ccc3c(Nc3ccc(C(=O)O)cc3)c2c1`, 301 nM.
`Cc1cc(OCCCN2CCN(CCN3CCOCC3)CC2)ccc1NC(=O)COc1ccc(Cl)cc1C(=O)c1cc(Cl)cc(C#N)c1` yielded an XC50 of 697 nM.
To `C[C@@H](N)C#Cc1cc2c(Nc3ccc(OCc4cccc(F)c4)c(Cl)c3)ncnc2s1` belongs 1060 nM; to `Cc1n[nH]c2cc(F)c(-c3cc(OC[C@@H](N)Cc4ccccc4)cnc3-c3ccoc3)cc12`, 1040 nM; to `Cc1nc(-c2cccc(C(F)(F)F)c2)n2nc(Nc3ccc(OCCN4CCCC4)cc3)ncc12`, 751 nM.
In the case of `O=C(Nc1cccc(-c2ccc(CN3CCC(O)CC3)cc2)c1)c1cccc(Cl)c1`, the XC50 was 764 nM.
On to `COc1ccc2nccc([C@@H](O)CN3CCC(NC(=O)Cc4cc5ccccc5s4)CC3)c2c1`, for which the XC50 came to 906 nM.
As for `COc1cc(CN=C(S)NN=C(C)c2ccccn2)cc(OC)c1OC`, the XC50 was 396 nM.
Next, `CC1CN(c2cc(=O)n(Cc3ccc(NC(=O)Nc4ccc(-c5ccccc5)cc4)cc3)cn2)CC(C)N1` (stereo not drawn): 974 nM; `O=C(/C=C/c1ccc(Cl)c(Cl)c1)NCCCCCN1CCC(C(=O)Nc2cccc(Cl)c2)CC1`: 681 nM.
On to `COc1ccc(CCNCc2ccc3nc(N)cc(C)c3c2)cc1`, for which the XC50 came to 214 nM.
Next, `CC(C)CCCC(C)NC[C@@H](O)[C@H](Cc1ccccc1)NC(=O)c1cc(N2CCCC2=O)cc(N(c2ccccc2)S(C)(=O)=O)c1` (stereo partly drawn): 58.4 nM; `O=C(Nc1cccc(-c2nc3ccccc3[nH]2)c1)c1cccc(NC(=O)c2ccco2)c1`: 360 nM; `O=C(NCC1CCC(CNCCCc2ccccc2)CC1)Nc1ccc(Cl)c(Cl)c1` (stereo not drawn): 767 nM.
Next, `CCCC(C(=O)OCCN(CC)CC)(c1ccc(Cl)cc1)c1ccc(Cl)cc1`: 880 nM; `CSC1=NC(=Nc2c(C)cccc2C)C2(CCC(C(C)(C)C)CC2)N1c1ccc(O)cc1` (stereo not drawn): 250 nM.
To `O=C(NCc1ccccc1)NC1CCN(c2ccnc3cc(Cl)ccc23)C1` (stereo not drawn) belongs 158 nM; to `O=C(NCCc1ccc(F)cc1)c1ccc(N2CCN(c3ccncc3)CC2)nc1`, 1420 nM; to `O=c1cc(NCCCCNCc2cccc(Cl)c2)[nH]c2ccccc12`, 743 nM.
`Cc1cc2ncn(-c3nccc(NCc4ccc(F)cc4)n3)c2cc1C` gave an XC50 of 886 nM.
Compound `Cc1cc(-c2ccc3c(c2)CC[C@@H](N[C@@H](C)c2ccccc2)C3)cnc1N` returned an XC50 of 1730 nM.
For the compound `C=CCn1c(Cc2ccccc2)nnc1Sc1ccc(C#N)c([N+](=O)[O-])c1`, the XC50 was 1030 nM.
For the compound `Cc1ccc(-c2nc3ccccc3o2)cc1NCc1cc(Cc2ccccc2)ccc1O`, the XC50 amounted to 1030 nM.
To `CN(C)c1ccc(-c2csc(C(=O)NCC3CCN(Cc4ccc(C(C)(C)C)cc4)C3)c2)cc1` (stereo not drawn) belongs 986 nM; to `O=c1cc(NCCCNCc2csc(Br)c2Sc2ccc(Cl)cc2)[nH]c2ccccc12`, 849 nM.
